# Assay results published in ChEMBL document CHEMBL5465560, “Selectivity Literature for EUbOPEN Chemogenomic Library” (2024).
# What was measured:
# [1] = biological target: Activin receptor type-2B (Homo sapiens) (UniProt Q13705); assay: Selectivity interaction (KinomeScan (DiscoverX)) EUB0000666a ACVR2B; conditions: at 10 µM
# [2] = biological target: Eukaryotic translation initiation factor 2-alpha kinase 1 (Homo sapiens) (UniProt Q9BQI3); assay: Selectivity interaction (KinomeScan (DiscoverX)) EUB0001079a EIF2AK1; conditions: at 1 µM
# Eukaryotic translation initiation factor 2-alpha kinase 1 (Homo sapiens), sequence (Q9BQI3 whole entry): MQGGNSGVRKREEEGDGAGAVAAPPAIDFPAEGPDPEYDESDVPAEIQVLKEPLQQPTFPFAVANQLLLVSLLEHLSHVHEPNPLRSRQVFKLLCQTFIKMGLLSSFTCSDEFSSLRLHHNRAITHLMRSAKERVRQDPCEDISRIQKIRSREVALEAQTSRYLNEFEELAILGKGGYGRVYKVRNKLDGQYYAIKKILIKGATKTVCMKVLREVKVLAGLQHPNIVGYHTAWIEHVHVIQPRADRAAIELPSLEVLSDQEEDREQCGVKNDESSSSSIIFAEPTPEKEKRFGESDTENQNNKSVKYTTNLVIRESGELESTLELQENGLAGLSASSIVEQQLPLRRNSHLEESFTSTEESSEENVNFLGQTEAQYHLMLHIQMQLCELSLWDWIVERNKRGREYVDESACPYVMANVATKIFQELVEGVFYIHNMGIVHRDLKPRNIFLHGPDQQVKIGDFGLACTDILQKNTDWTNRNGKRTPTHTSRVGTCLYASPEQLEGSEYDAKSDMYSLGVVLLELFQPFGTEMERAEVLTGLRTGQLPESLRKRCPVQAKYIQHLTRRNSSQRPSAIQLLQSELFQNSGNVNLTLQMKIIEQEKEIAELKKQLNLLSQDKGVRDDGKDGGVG
# [3] = biological target: Serine/threonine-protein kinase MARK2 (Homo sapiens) (UniProt Q7KZI7); assay: Selectivity interaction (ActivX KiNativ screen (kinase selectivity in THP-1 cell lysates)) EUB0000639a MARK2; type: subcellular; conditions: lysate, at 0.04 µM
# Serine/threonine-protein kinase MARK2 (Homo sapiens), sequence (Q7KZI7 whole entry): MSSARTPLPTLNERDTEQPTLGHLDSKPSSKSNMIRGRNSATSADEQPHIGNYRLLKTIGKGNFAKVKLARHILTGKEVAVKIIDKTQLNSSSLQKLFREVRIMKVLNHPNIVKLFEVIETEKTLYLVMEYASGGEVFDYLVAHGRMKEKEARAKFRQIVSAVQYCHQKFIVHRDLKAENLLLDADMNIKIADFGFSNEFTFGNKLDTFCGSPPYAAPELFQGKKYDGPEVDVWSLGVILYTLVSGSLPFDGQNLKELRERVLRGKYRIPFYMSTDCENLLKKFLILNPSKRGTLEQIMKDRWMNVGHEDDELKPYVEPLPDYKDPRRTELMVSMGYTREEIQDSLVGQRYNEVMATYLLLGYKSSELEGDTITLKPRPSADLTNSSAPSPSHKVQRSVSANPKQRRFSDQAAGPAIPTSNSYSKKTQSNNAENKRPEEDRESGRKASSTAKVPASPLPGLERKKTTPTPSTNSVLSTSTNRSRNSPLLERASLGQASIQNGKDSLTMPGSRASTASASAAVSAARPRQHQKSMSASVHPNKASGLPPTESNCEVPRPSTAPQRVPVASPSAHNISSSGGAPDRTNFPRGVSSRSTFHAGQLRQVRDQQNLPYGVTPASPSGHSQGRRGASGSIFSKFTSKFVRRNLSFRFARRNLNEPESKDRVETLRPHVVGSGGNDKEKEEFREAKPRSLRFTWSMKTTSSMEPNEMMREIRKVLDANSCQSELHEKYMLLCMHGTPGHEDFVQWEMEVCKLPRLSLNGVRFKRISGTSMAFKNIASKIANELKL
# [4] = biological target: Cyclin-dependent kinase-like 1 (Homo sapiens) (UniProt Q00532); assay: Selectivity interaction (KinomeScan (DiscoverX)) EUB0000595a CDKL1; conditions: at 10 µM
# Cyclin-dependent kinase-like 1 (Homo sapiens), sequence (Q00532 whole entry): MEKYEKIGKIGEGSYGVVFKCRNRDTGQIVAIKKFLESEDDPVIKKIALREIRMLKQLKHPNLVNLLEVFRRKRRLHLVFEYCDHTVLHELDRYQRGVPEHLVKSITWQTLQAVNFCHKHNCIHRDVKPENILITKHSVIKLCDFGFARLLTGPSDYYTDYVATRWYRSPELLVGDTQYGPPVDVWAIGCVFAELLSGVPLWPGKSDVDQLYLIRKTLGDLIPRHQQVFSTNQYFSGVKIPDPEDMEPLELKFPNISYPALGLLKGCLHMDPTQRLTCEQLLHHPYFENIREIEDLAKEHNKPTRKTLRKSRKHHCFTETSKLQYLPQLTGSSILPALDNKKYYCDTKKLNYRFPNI
# [5] = biological target: Tyrosine-protein kinase Fer (Homo sapiens) (UniProt P16591); assay: Selectivity interaction (Kinase screening (Nanosyn)) EUB0000604a FER
# Tyrosine-protein kinase Fer (Homo sapiens), sequence (P16591 whole entry, looked up): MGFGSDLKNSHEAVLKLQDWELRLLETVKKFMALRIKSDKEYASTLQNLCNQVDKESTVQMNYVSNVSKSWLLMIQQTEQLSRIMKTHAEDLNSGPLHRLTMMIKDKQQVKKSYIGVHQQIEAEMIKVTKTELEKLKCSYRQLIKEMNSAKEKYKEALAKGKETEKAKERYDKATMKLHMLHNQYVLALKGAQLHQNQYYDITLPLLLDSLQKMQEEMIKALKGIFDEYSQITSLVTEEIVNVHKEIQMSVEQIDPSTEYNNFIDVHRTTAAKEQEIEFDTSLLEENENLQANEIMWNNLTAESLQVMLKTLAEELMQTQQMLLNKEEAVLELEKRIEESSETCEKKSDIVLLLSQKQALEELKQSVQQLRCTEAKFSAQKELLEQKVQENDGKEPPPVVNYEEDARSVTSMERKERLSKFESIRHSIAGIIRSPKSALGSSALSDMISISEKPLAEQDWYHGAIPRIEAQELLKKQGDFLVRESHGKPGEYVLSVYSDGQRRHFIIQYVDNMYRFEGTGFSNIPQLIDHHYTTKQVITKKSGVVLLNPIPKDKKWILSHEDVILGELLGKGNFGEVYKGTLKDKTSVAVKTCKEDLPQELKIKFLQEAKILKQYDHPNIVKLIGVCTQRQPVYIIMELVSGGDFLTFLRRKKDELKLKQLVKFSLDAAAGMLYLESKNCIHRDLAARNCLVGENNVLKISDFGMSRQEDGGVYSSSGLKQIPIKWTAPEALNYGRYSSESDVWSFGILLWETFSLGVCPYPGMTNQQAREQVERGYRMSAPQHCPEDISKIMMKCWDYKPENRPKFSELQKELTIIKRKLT
# [6] = biological target: Serine/threonine-protein kinase SIK3 (Homo sapiens) (UniProt Q9Y2K2); conditions: at 10 µM
# [7] = biological target: T1, Mitogen-activated protein kinase kinase kinase kinase 3 (Homo sapiens) (UniProt Q8IVH8); assay: Selectivity interaction (KinomeScan (DiscoverX)) EUB0001619a MAP4K3; conditions: at 1 µM
# T1 sequence (whole entry): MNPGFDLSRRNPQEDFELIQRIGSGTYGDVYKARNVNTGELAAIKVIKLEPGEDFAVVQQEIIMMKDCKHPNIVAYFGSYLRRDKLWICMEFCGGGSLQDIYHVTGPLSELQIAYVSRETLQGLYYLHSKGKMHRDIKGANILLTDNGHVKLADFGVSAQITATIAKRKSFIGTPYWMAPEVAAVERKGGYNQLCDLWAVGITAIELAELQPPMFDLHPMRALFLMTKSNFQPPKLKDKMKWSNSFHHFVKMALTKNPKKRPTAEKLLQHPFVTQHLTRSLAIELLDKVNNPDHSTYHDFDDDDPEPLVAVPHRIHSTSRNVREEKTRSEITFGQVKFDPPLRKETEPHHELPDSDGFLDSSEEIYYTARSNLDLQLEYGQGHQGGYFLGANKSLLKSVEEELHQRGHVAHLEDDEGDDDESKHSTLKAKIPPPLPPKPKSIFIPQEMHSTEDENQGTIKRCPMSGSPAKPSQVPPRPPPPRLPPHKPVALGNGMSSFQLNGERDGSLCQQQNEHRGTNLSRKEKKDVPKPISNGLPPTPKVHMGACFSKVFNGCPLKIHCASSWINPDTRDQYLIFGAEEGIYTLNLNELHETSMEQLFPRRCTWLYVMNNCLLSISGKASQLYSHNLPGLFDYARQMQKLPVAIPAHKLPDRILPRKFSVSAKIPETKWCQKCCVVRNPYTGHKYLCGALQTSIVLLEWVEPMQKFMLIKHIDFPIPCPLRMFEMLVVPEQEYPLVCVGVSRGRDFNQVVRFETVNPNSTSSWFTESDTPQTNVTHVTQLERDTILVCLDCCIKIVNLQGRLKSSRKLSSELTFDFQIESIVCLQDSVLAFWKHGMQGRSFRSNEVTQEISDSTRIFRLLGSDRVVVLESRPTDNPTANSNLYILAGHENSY
# [8] = biological target: Mitogen-activated protein kinase kinase kinase kinase 5 (Homo sapiens) (UniProt Q9Y4K4); assay: Selectivity interaction (SelectScreen profiling (Invitrogen)) EUB0000607a MAP4K5; conditions: at 2 µM
# Mitogen-activated protein kinase kinase kinase kinase 5 (Homo sapiens), sequence (Q9Y4K4 whole entry, looked up): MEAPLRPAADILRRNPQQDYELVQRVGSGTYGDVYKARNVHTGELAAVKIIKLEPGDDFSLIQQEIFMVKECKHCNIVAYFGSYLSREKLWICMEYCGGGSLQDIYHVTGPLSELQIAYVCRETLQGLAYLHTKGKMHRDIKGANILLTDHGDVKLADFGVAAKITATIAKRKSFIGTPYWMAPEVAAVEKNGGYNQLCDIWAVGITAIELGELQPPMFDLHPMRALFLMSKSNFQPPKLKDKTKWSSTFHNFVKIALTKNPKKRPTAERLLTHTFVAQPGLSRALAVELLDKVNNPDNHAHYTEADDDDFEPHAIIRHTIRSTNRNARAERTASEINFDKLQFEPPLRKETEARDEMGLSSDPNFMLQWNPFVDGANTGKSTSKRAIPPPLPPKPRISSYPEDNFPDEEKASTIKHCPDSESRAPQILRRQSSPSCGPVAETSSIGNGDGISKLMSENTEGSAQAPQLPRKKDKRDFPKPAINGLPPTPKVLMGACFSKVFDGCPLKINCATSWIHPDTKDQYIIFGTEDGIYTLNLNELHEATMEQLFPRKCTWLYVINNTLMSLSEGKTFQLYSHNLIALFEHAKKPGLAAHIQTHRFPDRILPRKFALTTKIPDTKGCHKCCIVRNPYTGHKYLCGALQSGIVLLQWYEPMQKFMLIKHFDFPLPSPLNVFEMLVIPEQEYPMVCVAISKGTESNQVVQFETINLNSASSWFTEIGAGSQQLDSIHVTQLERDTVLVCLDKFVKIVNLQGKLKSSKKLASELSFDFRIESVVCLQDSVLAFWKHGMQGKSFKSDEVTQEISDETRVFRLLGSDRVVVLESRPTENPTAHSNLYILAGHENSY
# [9] = biological target: Ribosomal protein S6 kinase alpha-3 (Homo sapiens, UniProt P51812); assay: Selectivity interaction (KinomeScan (DiscoverX)) EUB0000607a RPS6KA3; conditions: at 10 µM
# Ribosomal protein S6 kinase alpha-3, sequence (P51812 whole entry): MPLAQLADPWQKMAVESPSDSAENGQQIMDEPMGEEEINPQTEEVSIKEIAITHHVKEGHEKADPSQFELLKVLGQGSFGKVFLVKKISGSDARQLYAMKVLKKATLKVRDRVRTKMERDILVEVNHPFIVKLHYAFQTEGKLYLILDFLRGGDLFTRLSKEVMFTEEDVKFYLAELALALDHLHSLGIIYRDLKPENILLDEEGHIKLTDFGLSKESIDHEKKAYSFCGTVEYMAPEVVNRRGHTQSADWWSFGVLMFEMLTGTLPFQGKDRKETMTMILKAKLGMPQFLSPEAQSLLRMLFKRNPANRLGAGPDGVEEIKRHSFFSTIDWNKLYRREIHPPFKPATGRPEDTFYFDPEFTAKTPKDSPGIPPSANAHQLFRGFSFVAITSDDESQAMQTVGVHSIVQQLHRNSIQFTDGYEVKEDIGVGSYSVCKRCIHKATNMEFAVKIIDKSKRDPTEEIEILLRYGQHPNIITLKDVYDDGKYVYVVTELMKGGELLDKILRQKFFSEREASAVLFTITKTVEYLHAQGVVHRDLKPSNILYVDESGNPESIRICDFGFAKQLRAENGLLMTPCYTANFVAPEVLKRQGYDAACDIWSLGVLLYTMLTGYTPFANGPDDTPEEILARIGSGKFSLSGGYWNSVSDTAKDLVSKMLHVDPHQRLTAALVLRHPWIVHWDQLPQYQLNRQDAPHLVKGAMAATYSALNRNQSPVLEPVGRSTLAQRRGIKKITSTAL
# [10] = biological target: T2, Ephrin type-A receptor 1 (Homo sapiens) (UniProt P21709); assay: Selectivity interaction (ProQinase) EUB0000171b EPHA1
# T2 sequence (whole entry): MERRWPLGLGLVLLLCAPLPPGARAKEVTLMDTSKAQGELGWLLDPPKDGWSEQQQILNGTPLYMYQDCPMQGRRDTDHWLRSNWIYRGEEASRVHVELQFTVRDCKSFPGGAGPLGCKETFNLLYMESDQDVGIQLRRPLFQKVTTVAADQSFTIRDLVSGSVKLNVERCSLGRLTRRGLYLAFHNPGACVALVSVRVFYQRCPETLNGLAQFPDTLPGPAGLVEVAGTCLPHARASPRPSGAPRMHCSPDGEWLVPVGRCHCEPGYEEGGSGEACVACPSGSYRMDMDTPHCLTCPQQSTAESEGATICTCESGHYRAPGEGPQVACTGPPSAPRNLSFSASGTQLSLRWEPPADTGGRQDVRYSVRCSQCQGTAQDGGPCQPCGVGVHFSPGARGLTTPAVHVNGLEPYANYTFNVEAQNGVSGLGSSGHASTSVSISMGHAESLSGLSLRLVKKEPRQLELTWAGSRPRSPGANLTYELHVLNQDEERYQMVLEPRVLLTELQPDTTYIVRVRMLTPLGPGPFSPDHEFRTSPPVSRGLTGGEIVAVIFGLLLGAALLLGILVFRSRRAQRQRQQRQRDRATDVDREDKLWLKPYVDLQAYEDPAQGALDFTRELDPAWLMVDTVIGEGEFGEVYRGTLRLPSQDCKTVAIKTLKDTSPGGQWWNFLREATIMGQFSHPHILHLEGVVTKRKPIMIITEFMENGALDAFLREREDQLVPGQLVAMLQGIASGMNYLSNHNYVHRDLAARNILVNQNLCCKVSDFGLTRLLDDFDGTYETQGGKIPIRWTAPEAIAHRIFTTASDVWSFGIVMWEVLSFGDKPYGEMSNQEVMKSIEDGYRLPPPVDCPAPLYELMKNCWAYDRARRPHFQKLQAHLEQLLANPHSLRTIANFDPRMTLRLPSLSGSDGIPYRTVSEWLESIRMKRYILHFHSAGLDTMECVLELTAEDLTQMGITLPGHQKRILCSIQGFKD
# Activin receptor type-2B (Homo sapiens), sequence (Q13705 whole entry): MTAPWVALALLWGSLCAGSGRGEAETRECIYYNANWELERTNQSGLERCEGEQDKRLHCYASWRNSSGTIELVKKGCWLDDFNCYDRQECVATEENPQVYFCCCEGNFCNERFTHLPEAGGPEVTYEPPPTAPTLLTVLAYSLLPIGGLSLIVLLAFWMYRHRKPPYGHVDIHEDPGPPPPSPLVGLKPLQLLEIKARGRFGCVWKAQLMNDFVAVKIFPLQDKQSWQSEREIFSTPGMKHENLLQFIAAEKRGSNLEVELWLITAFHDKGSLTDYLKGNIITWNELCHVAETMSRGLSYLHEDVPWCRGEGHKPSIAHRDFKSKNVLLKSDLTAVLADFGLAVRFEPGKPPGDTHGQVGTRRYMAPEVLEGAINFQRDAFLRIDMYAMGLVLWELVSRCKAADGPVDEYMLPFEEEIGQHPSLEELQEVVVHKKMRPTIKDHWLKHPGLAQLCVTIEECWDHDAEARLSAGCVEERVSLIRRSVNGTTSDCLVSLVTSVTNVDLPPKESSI
structure (smiles),measurement,setting,value
O=C(NOC[C@H](O)CO)c1ccc(F)c(F)c1Nc1ccc(I)cc1F,% of control,[1],66%
Nc1cnc(N2CCc3cc(S(=O)(=O)Nc4c(F)cc(Cl)cc4F)cc(N4CCCC4=O)c32)nc1 [TP-020n],% of control,[2],94%
CC[C@@H]1[C@H](F)C(=O)N[C@@H]1COc1nccc2cc(C(N)=O)c(OC)cc12 [ZIMLOVISERTIB],% of inhibition,[3],8.3%
COCC(=O)NC/C=C/c1ccc2ncnc(Nc3ccc(Oc4ccc(C)nc4)c(C)c3)c2c1 [CP-724714],% of control,[4],69%
Cc1cnc(Nc2ccc(F)cc2Cl)nc1-c1c[nH]c(C(=O)N[C@H](CO)c2cccc(Cl)c2)c1,% of inhibition,[5],3%
Cc1cc([C@@H](C)Nc2ccccc2C(=O)O)c2nc(N3CCOCC3)cc(=O)n2c1 [AZD-6482],% of control,[6],95%
N#Cc1cccc(-c2c[nH]c3ncnc(N4CCOCC4)c23)c1,% of control,[7],4.8%
CNC(=O)Nc1ccc(-c2nc(N3CC4CCC(C3)O4)c3cnn(C4CCC5(CC4)OCCO5)c3n2)cc1,% of inhibition,[8],19%
same,% of control,[9],100%
C=CC(=O)Nc1cccc(C(=O)Nc2ccc(Nc3cc(-c4[nH]c(SC)nc4C)ccn3)cc2)c1,% of control,[10]; at 1 µM,90%
same,% of control,[10]; at 5 µM,63%
